According to patent publication US20260035367A1 (Celgene Corporation, priority 2021, published 2026):
Like-named read-outs stand apart in the source and are kept apart here.

Columns and labels:
[1] = system: IL-2 secretion by human effector memory T cells (TEM); assay: Effector memory T cells IL-2 release assay (CD3/CD28 stimulation, HTRF IL-2 detection); type: cell-based; settings: Homo sapiens, T-cell, 24 h
Method: Test compound-mediated inhibition of NFκB signalling in T cells was assessed by quantification of the IL-2 secretion by human effector memory T cells (TEM) upon treatment and stimulation. Human TEM cells were isolated from buffy coats of healthy donors obtained from the French blood bank.
Finally, 10 doses of test compound, originally prepared in DMSO by serial semi-log step dilution, were also added to cells in triplicate wells. Final DMSO concentration in wells was 0.1% in a total volume of 100 μL complete medium. Plates were incubated for 24 h at 37° C. in 5% CO2 atmosphere. After incubation, cell suspensions were centrifuged at 400×g and culture supernatants were recovered and stored at −80° C. […] IL-2 levels were determined in cell supernatants using an HTRF human IL-2 detection kit (Cisbio, cat #62HIL02PEH).

[2] = molecular target: T1, Recombinant human PKC-delta (His-tagged 345-676) (Homo sapiens, UniProt Q05655); assay: PKC-delta inhibition assay (HTRF KinEASE kit); type: biochemical; settings: ratio, PKC-theta vs PKC-delta HTRF; for PKC-theta/PKC-delta selectivity (binned): binned A to G
T1 construct: PKC-delta (His-tagged 345-676); His
T1 sequence (Q05655 345-676): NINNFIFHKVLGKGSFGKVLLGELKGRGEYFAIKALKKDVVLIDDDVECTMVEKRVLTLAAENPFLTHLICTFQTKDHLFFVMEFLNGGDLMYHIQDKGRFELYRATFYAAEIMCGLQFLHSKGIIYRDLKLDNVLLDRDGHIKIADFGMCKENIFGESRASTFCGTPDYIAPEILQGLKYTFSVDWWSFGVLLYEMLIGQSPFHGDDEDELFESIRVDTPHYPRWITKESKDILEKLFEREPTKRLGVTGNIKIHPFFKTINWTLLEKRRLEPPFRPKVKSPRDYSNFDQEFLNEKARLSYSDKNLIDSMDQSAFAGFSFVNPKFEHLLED

[3] = molecular target: T2, Recombinant human PKC-theta (His-tagged 362-706) (Homo sapiens, UniProt Q04759); assay: PKC-theta inhibition assay (HTRF KinEASE kit); type: biochemical; settings: ATP 6.5 μM, STK substrate 525 nM
T2 construct: Recombinant human PKC-theta (His-tagged 362-706); His
T2 sequence (Q04759 362-706): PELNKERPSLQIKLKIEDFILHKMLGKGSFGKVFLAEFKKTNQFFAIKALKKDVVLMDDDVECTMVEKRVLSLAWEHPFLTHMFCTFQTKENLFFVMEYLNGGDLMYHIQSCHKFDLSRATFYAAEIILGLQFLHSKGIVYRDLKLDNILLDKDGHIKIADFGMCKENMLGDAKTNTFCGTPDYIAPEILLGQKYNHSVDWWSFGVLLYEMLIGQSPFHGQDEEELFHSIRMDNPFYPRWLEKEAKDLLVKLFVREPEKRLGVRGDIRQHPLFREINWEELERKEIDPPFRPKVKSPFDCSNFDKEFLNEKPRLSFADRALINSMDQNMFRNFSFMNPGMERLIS
Method: PKC-theta and PKC-delta biochemical activities were measured using the PKC-theta HTRF KinEASEkit kit, according to manufacturer's instructions (Cisbio, catalogue number 61ST1PEJ). Briefly, the kinase buffer component of the kit was supplemented with 10 mM MgCl2, 1 mM DTT and 0.1% Tween 20. […] The streptavidin_XL665 and STK antibody-cryptate detection reagents were mixed according to the manufacturer's instructions. Test compounds were diluted in DMSO in a series of 10 semi-log step doses; 10 nL of each compound dose were dispensed in 384 well plates. […] The reaction was started by addition of the substrate and ATP and incubated at 25° C. for 30 minutes or 20 minutes for the PKC-theta and PKC-delta assays, respectively. The detection reagents were added, and the plate was incubated in the dark for 2 hours. […] The ratio of acceptor and donor emission signals was calculated for each well. Percent inhibition values were calculated from the HTRF ratios at different doses and fitted to a 4-parameter logistic curve to determine IC50 values (see Table 2).

[4] = binned A to G, read-out: PKC-theta IL2 pIC50 (binned) (converted)
[5] = read-out: PKC-theta IL2 pIC50 (converted)
[6] = binned A to H, read-out: PKC-theta HTRF pIC50 (binned) (converted)
[7] = read-out: PKC-theta HTRF pIC50 (converted)

Row | Compound | IC50 [1, 4] | IC50 [1, 5] | PKC-theta/PKC-delta selectivity [2] | PKC-theta/PKC-delta selectivity (binned) [2] | IC50 [3, 6] | IC50 [3, 7]
1 | CC1(C)C(=O)Nc2nccc(-c3cc(C(F)(F)F)cc(N4CCN[C@H]5COC[C@H]54)n3)c21 [Example 192] | 100 to 316 nM | 158 nM | 31 | B (a ratio of between 30 and 50) | 3.16 to 10 nM | 3.98 nM
2 | C[C@@H]1CN(c2cccc(-c3ccnc4c3C(C)(C)C(=O)N4)c2)CCN1 [Example 54] | > 1000 nM | 2000 nM | 3 | F (a ratio of between 1 and 5) | 31.6 to 100 nM | 100 nM
3 | C[C@H](O)[C@@H]1CN(c2cc(C(F)(F)F)cc(-c3ccnc4c3C(C)(C)C(=O)N4)n2)CCN1 [Example 121] | 316 to 1000 nM | 631 nM | 12 | D (a ratio of between 10 and 20) | 10 to 31.6 nM | 25.1 nM
4 | C[C@H]1CCNCCN1c1cc(C(F)(F)F)cc(-c2ccnc3c2C(C)(C)C(=O)N3)n1 [Example 187] | 31.6 to 100 nM | 100 nM | 28 | C (a ratio of between 20 and 30) | 3.16 to 10 nM | 5.01 nM
5 | C[C@@H]1CNCCN(c2cc(C(F)(F)F)cc(-c3ccnc4c3C(C)(C)C(=O)N4)n2)C1 [Example 182] | 100 to 316 nM | 158 nM | 25 | C (a ratio of between 20 and 30) | 3.16 to 10 nM | 7.94 nM
6 | CC(c1cccc(-c2ccnc3[nH]c(=O)[nH]c23)c1)N(C)C (centres unmarked) [Example 1] | > 1000 nM | 10000 nM | 1 | F (a ratio of between 1 and 5) | 316 to 1000 nM | 501 nM
7 | CCC1(C)C(=O)Nc2nccc(-c3cc(C(F)(F)F)cc(N4CCN[C@@H](C)C4)n3)c21 (some centres unmarked) [Example 114] | 31.6 to 100 nM | 63.1 nM | 13 | D (a ratio of between 10 and 20) | 3.16 to 10 nM | 5.01 nM
8 | CC1(C)C(=O)Nc2nccc(-c3cc(C(F)(F)F)cc(N4CCNC(C(C)(C)O)C4)n3)c21 (centres unmarked) [Example 124] | 100 to 316 nM | 158 nM | 16 | D (a ratio of between 10 and 20) | 3.16 to 10 nM | 3.98 nM
9 | O=c1[nH]c2nccc(-c3cccc(CN4CCNCC4)c3)c2[nH]1 [Example 20] | > 1000 nM | 10000 nM | – | G (a ratio of 0 to 1) | > 1000 nM | 3980 nM
10 | CC[C@H]1CN(c2cc(C(F)(F)F)cc(-c3ccnc4c3[C@](C)(OC)C(=O)N4)n2)CCN1 (single isomer, unassigned) [Example 191] | 100 to 316 nM | 251 nM | 22 | C (a ratio of between 20 and 30) | 10 to 31.6 nM | 15.8 nM
11 | CC1(C)C(=O)Nc2ncc(Br)c(-c3cc(F)cc(N4CCNCC4)c3)c21 [Example 69] | 316 to 1000 nM | 398 nM | 1 | F (a ratio of between 1 and 5) | 31.6 to 100 nM | 39.8 nM
12 | CO[C@]1(C)C(=O)Nc2nccc(-c3cc(C(F)(F)F)cc(N4CCNC[C@H]4C)n3)c21 (single isomer, unassigned) [Example 158] | 100 to 316 nM | 200 nM | 10 | E (a ratio of between 5 and 10) | 3.16 to 10 nM | 6.31 nM
13 | C[C@H]1CN(c2cc(C(F)(F)F)cc(-c3ccnc4c3C(C)(C)C(=O)N4)n2)CCN1 [Example 141] | 31.6 to 100 nM | 50.1 nM | 16 | D (a ratio of between 10 and 20) | 3.16 to 10 nM | 3.98 nM
